In patent US6514953B1, “Calcium (3S) tetrahydro-3-furanyl(1S,2R)-3-[[(4-aminophenyl)sulfonyl](isobutyl)amino]-1-benzyl-2-(phosphonooxy)propylcarbamate” (SmithKline Beecham Corporation, priority 1998, dated 2003):
≈ marks a conversion by molar mass, not a printed value.

Assay: physchem

| solubility (0.1N HCl, pH 1, simulated gastric fluid) | solubility (aqueous solution, pH 6.3, aqueous buffer) | SMILES | solubility (pH 1.47, simulated gastric fluid) | solubility (pH 3.27, aqueous buffer) | solubility (pH 4.11, aqueous buffer) | solubility (pH 5.02, aqueous buffer) | solubility (pH 6.27, aqueous buffer) |
| --- | --- | --- | --- | --- | --- | --- | --- |
| 290 µg/mL (≈ 574 µM) | 95 µg/mL (≈ 188 µM) | CC(C)CN(C[C@@H](O)[C@H](Cc1ccccc1)NC(=O)O[C@H]1CCOC1)S(=O)(=O)c1ccc(N)cc1 (relative stereo) [amprenavir, [3S-[3R*(1R*,2S*)]]-[3-[[(4-aminophenyl)sulfonyl](2-methyl-propyl)amino]-2-hydroxy-1-phenylmethyl)propyl]-tetrahydro-3-furanyl ester, reference compound] |  |  |  |  |  |
|  |  | CC(C)CN(C[C@@H](OP(=O)([O-])[O-])[C@H](Cc1ccccc1)NC(=O)O[C@H]1CCOC1)S(=O)(=O)c1ccc(N)cc1.[Ca+2] [compound of formula (I), calcium (3S) tetrahydro-3-furanyl (1S,2R)-3-[[(4-aminophenyl)sulfonyl](isobutyl)amino]-1-benzyl-2-(phosphonooxy)propylcarbamate] | 3200 µg/mL | 61100 µg/mL | 9410 µg/mL | 3200 µg/mL | 531 µg/mL |
